Source: US5705487A, “Antithrombotic agents” (priority 1995, dated 1998)
Counter-ions that a name gives are not always drawn.

Assays:
Type in all cases: biochemical
Human Plasma [1] = test: Human plasma anticoagulation, prothrombin time (PT); conditions: concentration required to double the clotting time
Summary of the method: (§1)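 Values are concentrations estimated by linear extrapolation to double the clotting time in human plasma containing test compound across a wide range. Thrombin time was triggered with bovine thrombin at 10 NIH units/mL plus saline, and prothrombin time with Thromboplastin-C plus saline. For APTT, plasma sat with Actin reagent for 120 seconds before 0.02M CaCl2.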

factor Xa = target: T1, factor Xa (Homo sapiens, UniProt P00742); test: Kass, factor Xa chromogenic substrate assay; conditions: substrate N-Benzoyl-Ile-Glu-Gly-Arg-p-nitroanilide
T1 construct: Human factors X, Xa, IXa, XIa, and XIIa are purchased; purchased Enzyme Research Laboratories, South Bend, Ind

Human plasmin = target: T2, Human plasmin (Homo sapiens, UniProt P00747); test: Kass, plasmin chromogenic substrate assay; conditions: substrate H-D-Val-Leu-Lys-p-nitroanilide
T2 construct: Human plasmin is purchased from Boehringer Mannheim; purchased Boehringer Mannheim, Indianapolis, Ind

Human Plasma [2] = test: Human plasma anticoagulation, thrombin time (TT); conditions: concentration required to double the clotting time
Summary of the method: as §1

t-PA = target: T3, t-PA (Homo sapiens, UniProt P00750); test: Kass, t-PA chromogenic substrate assay; conditions: substrate H-D-Ile-Pro-Arg-p-nitroanilide
T3 construct: purchased American Diagnostica, Greenwich, Conn

Human Thrombin = Human Thrombin (Homo sapiens, UniProt P00734); test: Inhibition of the amidase activity of thrombin (Kass); conditions: chromogenic substrate N-benzoyl-Phe-Val-Arg-p-nitroanilide; mean over range of concentrations
Human Plasma [3] = test: Human plasma anticoagulation, activated partial thromboplastin time (APTT); conditions: concentration required to double the clotting time
Summary of the method: as §1

Bovine trypsin = target: T4, Bovine trypsin (Bos taurus, UniProt P00760); test: Kass, trypsin chromogenic substrate assay; conditions: substrate N-Benzoyl-Phe-Val-Arg-p-nitroanilide
T4 construct: Bovine trypsin is purchased from Worthington Biochemicals; purchased Worthington Biochemicals, Freehold, N.J
T4 sequence (P00760 24-246): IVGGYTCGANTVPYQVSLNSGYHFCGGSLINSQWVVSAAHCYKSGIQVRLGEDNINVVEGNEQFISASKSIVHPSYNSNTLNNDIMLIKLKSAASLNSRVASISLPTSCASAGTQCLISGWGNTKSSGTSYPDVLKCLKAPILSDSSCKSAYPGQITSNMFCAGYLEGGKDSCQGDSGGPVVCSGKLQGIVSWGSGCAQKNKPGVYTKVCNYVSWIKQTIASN

T3 sequence (P00750 36-562): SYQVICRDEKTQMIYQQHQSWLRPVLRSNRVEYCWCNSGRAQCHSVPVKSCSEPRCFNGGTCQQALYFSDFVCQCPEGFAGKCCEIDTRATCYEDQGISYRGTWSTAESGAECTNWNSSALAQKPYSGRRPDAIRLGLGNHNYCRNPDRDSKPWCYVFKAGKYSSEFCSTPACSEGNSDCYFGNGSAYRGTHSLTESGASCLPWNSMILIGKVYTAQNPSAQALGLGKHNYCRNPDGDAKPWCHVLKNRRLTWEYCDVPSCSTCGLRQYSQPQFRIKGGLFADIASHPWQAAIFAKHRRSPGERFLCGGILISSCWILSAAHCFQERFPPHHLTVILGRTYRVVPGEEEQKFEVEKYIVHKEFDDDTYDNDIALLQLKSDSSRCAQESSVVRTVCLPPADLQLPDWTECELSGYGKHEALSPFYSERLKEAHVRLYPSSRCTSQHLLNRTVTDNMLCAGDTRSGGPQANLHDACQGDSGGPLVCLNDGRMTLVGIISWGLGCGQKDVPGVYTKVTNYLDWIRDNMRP
T2 sequence (P00747 581-810 limits assumed): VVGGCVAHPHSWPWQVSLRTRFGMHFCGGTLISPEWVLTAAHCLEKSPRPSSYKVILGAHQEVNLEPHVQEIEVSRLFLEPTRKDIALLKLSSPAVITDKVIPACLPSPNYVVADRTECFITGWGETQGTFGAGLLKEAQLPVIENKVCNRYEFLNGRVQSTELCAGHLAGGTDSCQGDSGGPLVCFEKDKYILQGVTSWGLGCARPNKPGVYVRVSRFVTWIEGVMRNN
T2 sequence (P00747 97-580 partner limits assumed): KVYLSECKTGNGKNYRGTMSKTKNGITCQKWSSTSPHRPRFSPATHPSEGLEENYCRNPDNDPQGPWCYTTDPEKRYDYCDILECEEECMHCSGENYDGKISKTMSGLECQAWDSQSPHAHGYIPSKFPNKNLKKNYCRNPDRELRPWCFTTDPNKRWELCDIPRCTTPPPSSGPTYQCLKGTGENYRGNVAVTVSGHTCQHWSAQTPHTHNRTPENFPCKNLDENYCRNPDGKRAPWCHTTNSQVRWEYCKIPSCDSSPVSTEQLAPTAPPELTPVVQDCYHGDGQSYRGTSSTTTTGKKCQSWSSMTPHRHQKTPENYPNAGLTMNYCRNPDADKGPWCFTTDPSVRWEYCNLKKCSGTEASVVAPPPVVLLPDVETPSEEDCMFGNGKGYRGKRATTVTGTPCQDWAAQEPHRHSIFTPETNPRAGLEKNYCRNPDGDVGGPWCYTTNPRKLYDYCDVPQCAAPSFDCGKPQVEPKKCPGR
T1 sequence (P00742 235-488 limits assumed): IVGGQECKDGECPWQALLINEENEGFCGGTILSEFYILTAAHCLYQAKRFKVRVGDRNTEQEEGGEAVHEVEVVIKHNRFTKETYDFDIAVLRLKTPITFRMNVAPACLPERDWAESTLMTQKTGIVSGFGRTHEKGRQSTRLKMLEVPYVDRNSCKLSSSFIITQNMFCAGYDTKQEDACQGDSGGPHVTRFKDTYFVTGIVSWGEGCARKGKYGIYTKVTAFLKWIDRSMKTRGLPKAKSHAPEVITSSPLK
T1 sequence (P00742 41-179 partner limits assumed): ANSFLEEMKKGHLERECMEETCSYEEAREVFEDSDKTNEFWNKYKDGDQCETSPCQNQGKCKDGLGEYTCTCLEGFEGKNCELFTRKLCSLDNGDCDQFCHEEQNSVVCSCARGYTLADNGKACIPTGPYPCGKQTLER

Row | Compound | Kass × 10^6 (L/mole) Xa (factor Xa) | Kass × 10^6 (L/mole) Plasmin (Human plasmin) | Kass × 10^6 (L/mole) t-PA (t-PA) | Kass × 10^6 (L/mole) Human Thrombin (Human Thrombin) | Kass × 10^6 (L/mole) Trypsin (Bovine trypsin) | Human Plasma Anticoagulation 2x Clotting time PT (Human Plasma [1]) | Human Plasma Anticoagulation 2x Clotting time TT (Human Plasma [2]) | Human Plasma Anticoagulation 2x Clotting time APTT (Human Plasma [3])
1 | CCS(=O)(=O)N[C@H](Cc1ccccc1)C(=O)N1CCC[C@H]1C(=O)NCCCc1cccc(C(=N)N)c1 [Example 31, EtSO2 -D-Phe-Pro-m-NHCH2 CH2 CH2 -C6 H4 C(=NH)NH2.HCl] | 0.14 × 10^6 L/mole | < 0.001 × 10^6 L/mole | < 0.001 × 10^6 L/mole | 0.07 × 10^6 L/mole | 0.05 × 10^6 L/mole | 30,000 ng/mL | 10,800 ng/mL | 34,500 ng/mL
2 | N=C(N)c1cccc(CNC(=O)[C@@H]2CCCN2C(=O)[C@@H]2NCC[C@@H]3CCCC[C@@H]32)c1 [Example 25, D-1-Piq-Pro-m-NHCH2 -C6 H4 C(=NH)NH2.HCl] | < 0.001 × 10^6 L/mole | < 0.001 × 10^6 L/mole | 0.01 × 10^6 L/mole | 0.43 × 10^6 L/mole | 0.01 × 10^6 L/mole | 40,400 ng/mL | 1,430 ng/mL | 34,600 ng/mL
3 | CCS(=O)(=O)N[C@H](Cc1ccccc1)C(=O)N1[C@H](C(=O)NCc2ccc(C(=N)N)cc2)C[C@@H]2CCCC[C@@H]21 (relative stereo) [Example 45, EtSO2 -Phe-cis-Ohi-p-NHCH2 C6 H4 C(NH)NH2.HCl] | 1.5 × 10^6 L/mole | 1.1 × 10^6 L/mole | 0.77 × 10^6 L/mole | 610 × 10^6 L/mole | 110. × 10^6 L/mole | 330 ng/mL | 8 ng/mL | 200 ng/mL
4 | Cl.O=C(O)CN[C@H](CC1CCCCC1)C(=O)N1CCC[C@H]1C(=O)NCCC1=CCNCC1 [Example 59, HO2 CCH2 -D-Cha-Pro-4-NHCH2 CH2 -3,4-dehydro-piperidine.HCl] | < 0.001 × 10^6 L/mole | < 0.001 × 10^6 L/mole | < 0.001 × 10^6 L/mole | 1.10 × 10^6 L/mole | 0.21 × 10^6 L/mole | 7,000 ng/mL | 420 ng/mL | 5,500 ng/mL
5 | Cl.N=C(N)N1CCC(CNC(=O)[C@@H]2CCCN2C(=O)[C@@H](CC2CCCCC2)NCC(=O)O)CC1 [Example 56, HO2 CCH2 -D-Cha-Pro-4-NHCH2 -1-amidinopiperidine.HCl] | 0.20 × 10^6 L/mole | 0.01 × 10^6 L/mole | < 0.001 × 10^6 L/mole | 490 × 10^6 L/mole | 3.6 × 10^6 L/mole | 200 ng/mL | 5 ng/mL | 160 ng/mL
6 | Cl.Cl.N=C(N)c1ccc(CNC(=O)C2CC3CCCCC3N2C(=O)C2NCCC3CCCCC32)cc1 [Example 42, D-1-Piq-cis-Ohi-p-NHCH2 C6 H4 C(NH)NH2.2HCl] | 0.07 × 10^6 L/mole | 0.12 × 10^6 L/mole | 0.01 × 10^6 L/mole | 38. × 10^6 L/mole | 43. × 10^6 L/mole | 320 ng/mL | 20 ng/mL | 270 ng/mL
7 | N=C(N)c1ccc(CNC(=O)[C@@H]2C[C@@H]3CCCC[C@@H]3N2C(=O)[C@H]2C[C@H]3CCCC[C@H]3CN2)cc1 (relative stereo) [Example 43, D-3-Piq-cis-Ohi-p-NHCH2 C6 H4 C(NH)NH2.2HCl] | 0.05 × 10^6 L/mole | 0.30 × 10^6 L/mole | 0.01 × 10^6 L/mole | 1.4 × 10^6 L/mole | 100. × 10^6 L/mole | 930 ng/mL | 280 ng/mL | 1,100 ng/mL

The next lines start with results.

Row | Kass × 10^6 (L/mole) Xa (factor Xa) | Kass × 10^6 (L/mole) Plasmin (Human plasmin) | Kass × 10^6 (L/mole) t-PA (t-PA) | Kass × 10^6 (L/mole) Human Thrombin (Human Thrombin) | Kass × 10^6 (L/mole) Trypsin (Bovine trypsin) | Compound | Human Plasma Anticoagulation 2x Clotting time PT (Human Plasma [1]) | Human Plasma Anticoagulation 2x Clotting time TT (Human Plasma [2]) | Human Plasma Anticoagulation 2x Clotting time APTT (Human Plasma [3])
8 | 0.043 × 10^6 L/mole | 0.042 × 10^6 L/mole | 0.004 × 10^6 L/mole | 3.0 × 10^6 L/mole | 8.5 × 10^6 L/mole | N=C(N)c1ccc(CNC(=O)[C@@H]2C[C@H](Oc3ccccc3)CN2C(=O)[C@H]2CCCCN2)cc1 (relative stereo) [Example 22, D-hPro-Pro(4-cis-PhO)-P-NHCH2 -C6 H4 C(NH)NH2.2HCl] | 1,000 ng/mL | 170 ng/mL | 2,300 ng/mL
9 | < 0.001 × 10^6 L/mole | 0.01 × 10^6 L/mole | 0.01 × 10^6 L/mole | 0.65 × 10^6 L/mole | 0.49 × 10^6 L/mole | CCS(=O)(=O)N[C@H](Cc1ccccc1)C(=O)N1CCC[C@H]1C(=O)NCc1ccc(NC(=N)N)cc1 [Example 34, EtSO2 -D-Phe-Pro-p-NHCH2 C6 H4 NHC(NH)NH2.HCl] | 5,500 ng/mL | 530 ng/mL | 4,900 ng/mL
10 | 0.02 × 10^6 L/mole | < 0.001 × 10^6 L/mole | < 0.001 × 10^6 L/mole | 0.76 × 10^6 L/mole | 0.02 × 10^6 L/mole | N=C(N)c1cccc(CCNC(=O)[C@@H]2CCCN2C(=O)[C@@H]2NCC[C@@H]3CCCC[C@@H]32)c1 [Example 29, 1-Piq-Pro-m-NHCH2 CH2 -C6 H4 C(=NH)NH2.2HCl] | 15,800 ng/mL | 750 ng/mL | 9,800 ng/mL
11 | 0.62 × 10^6 L/mole | 0.031 × 10^6 L/mole | 0.002 × 10^6 L/mole | 3.6 × 10^6 L/mole | 0.96 × 10^6 L/mole | D-hPro-N(PhCH2 CH2)Gly-p-NHCH2 -C6 H4 C(NH)NH2.2HCl [Example 21] | 1,000 ng/mL | 160 ng/mL | 2,000 ng/mL
12 | 0.03 × 10^6 L/mole | < 0.001 × 10^6 L/mole | 0.01 × 10^6 L/mole | 0.13 × 10^6 L/mole | 0.04 × 10^6 L/mole | Cl.N=C(N)c1ccc(CCCNC(=O)C2CCCN2C(=O)C2NCCC3CCCCC32)cc1 (stereo not drawn) [Example 32, 1-Piq-Pro-p-NHCH2 CH2 CH2 -C6 H4 C(=NH)NH2.HCl] | 47,800 ng/mL | 3,100 ng/mL | 28,500 ng/mL
13 | 0.01 × 10^6 L/mole | < 0.001 × 10^6 L/mole | < 0.001 × 10^6 L/mole | 0.95 × 10^6 L/mole | 0.11 × 10^6 L/mole | N=C(N)c1ccc(CCNC(=O)[C@@H]2CCCN2C(=O)[C@@H]2NCC[C@@H]3CCCC[C@@H]32)cc1 [Example 28, 1-Piq-Pro-p-NHCH2 CH2 -C6 H4 C(=NH)NH2.2HCl] | 8,300 ng/mL | 520 ng/mL | 8,100 ng/mL
14 | 0.04 × 10^6 L/mole | 0.18 × 10^6 L/mole | 0.01 × 10^6 L/mole | 45 × 10^6 L/mole | 82. × 10^6 L/mole | N=C(N)c1ccc(CNC(=O)[C@@H]2C[C@@H]3CCCC[C@@H]3N2C(=O)[C@@H](Cc2ccccc2)NCC(=O)O)cc1 (relative stereo) [Example 47, HOOCCH2 -D-Phe-cis-Ohi-p-NHCH2 C6 H4 C(NH)NH2.HCl] | 270 ng/mL | 12. ng/mL | 140 ng/mL
